Reference: patent publication US20110293537A1, “FORMULATIONS WITH ANTI-NEOPLASTIC ACTIVITY” (priority 2008, published 2011)
Read-outs that look alike come from different tables or passages of the source.

Columns and labels:
[1] = system: buccal pouches and principal organs; experiment: Local toxicity of empty vehicles without DMBA induction; format: in vivo, Syrian golden hamsters (Mesocricetus auratus)
Experimental: The last thirty animals were randomly divided in three further groups (n=10 each) to evaluate the local toxicity of the empty vehicles (TE, TC and TM) without DMBA carcinogenesis induction. Topical application of EtOH, cream and mouthwash was performed in the same manner before described.
In vivo side effects were investigated after 14 weeks of E, C and M topical applications on right buccal pouches on three groups of animals (TE, TC and TM respectively).

[2] = cited from earlier work
[3] = system: DMBA-induced lesions (OPL, ExL) of hamster buccal pouch; details: in vivo
[4] = cited from earlier work; remark: listed apart in the source
HCPC-I cells = details: in vitro, FIG. 2
Experimental: Cells were harvested every 3-4 days with 0.25% trypsin solution (from Sigma). […] HCPC-I cells were dispensed at a density of 5×10^2/100 μl for each well in RPMI-1640 supplemented with 10% FCS. […] After 72 h of incubation, cells were supplemented with 10 μl of a stock solution (5 mg/ml) of MTT (Sigma) in phosphate buffer saline (PBS). At least 3 h later, culture medium was replaced with 100 μl of dimethyl-sulfoxide (DMSO, Sigma) and plates read at 560 nm with a “Microplate Reader model 450” (BioRad). Cell viability was expressed as average percentage of absorbance in treated cells versus control (culture medium alone).

[5] = cited from earlier work; remark: listed apart in the source
[6] = 14 weeks topical application, no DMBA

In the case of `CCO` [EtOH, ethanol], the “gross observations of pouches and principal organs” value [1, 6] is reported as “did not reveal any macroscopic alterations” and the “histological HE analysis, local adverse reactions” value [1, 6] is reported as “absence of local adverse reactions”.
In the case of `Oc1ccc(/C=C/c2cc(O)cc(O)c2)cc1` [RV, 3,4′,5-trihydroxy-trans-stilbene], the pKa ([2]; 3-OH group) is given as 10, the pKa ([2]; 4′-OH group) is given as 9.3 and the pKa ([2]; 5-OH group) is given as 10.6. The “tolerance of topical application on oral mucosa” value [3] was “good tolerance”, the oral bioavailability ([4]; human) was “very poor” and the initial half-life ([4]; in vivo) was 8 to 14 min.
For hydroxypropyl-β-cyclodextrin [HPβCD], the “toxic signs or adverse effects in chronic treated hamsters” value ([1]; in vivo concentrations) is given as “did not display any toxic signs or adverse effects”, the “inhibition of cell growth by HPβCD” value (HCPC-I cells) is given as “inhibition of cell growth only at extremely high concentrations” and the “dose with main adverse event (soft stools and diarrhea)” value ([5]; almost 14 days) is given as 16-24 g HPβCD/day. For the same compound, the oral toxicity ([5]; orally administered) was “practically non-toxic”.
